One block for each molecule: values may come before it.
Tests used:
[1] = Lipophilicity, logD of compound by shake flask method; assay type: physicochemical; conditions: octanol/water
[2] = Stability of compound at pH 1 assessed as half-life by 1H NMR assay; assay type: physicochemical; conditions: buffer
[3] = Unbound brain concentration in mouse at 32 mg/kg, sc; assay type: ADME, organism-based; conditions: in vivo
[4] = Unbound brain concentration in mouse at 1 mg/kg, sc; assay type: ADME, organism-based; conditions: in vivo
[5] = Unbound brain concentration in mouse at 10 mg/kg, sc; assay type: ADME, organism-based; conditions: in vivo
[6] = Unbound brain concentration in mouse at […], sc; assay type: ADME, organism-based; conditions: in vivo, dose 3.2 mg/kg
[7] = Unbound plasma concentration in mouse at 32 mg/kg, sc; assay type: ADME, organism-based; conditions: in vivo
[8] = Unbound plasma concentration in mouse at 10 mg/kg, sc; assay type: ADME, organism-based; conditions: in vivo
[9] = Unbound plasma concentration in mouse at 1 mg/kg, sc; assay type: ADME, organism-based; conditions: in vivo
[10] = Unbound plasma concentration in mouse at […], sc; assay type: ADME, organism-based; conditions: in vivo, dose 3.2 mg/kg

logD [1]: 1.84
Compound: Cc1cc(C)c2c(n1)CN(C(=O)CC1CC1)C2

half-life [2]: 9 min
Compound: Cc1cc(C)c2c(n1)CN(C(=O)CC1CN(c3ccccc3)C1)C2

Drug uptake(free) [3]: 240 nM | Drug uptake(free) [4]: 13 nM | Drug uptake(free) [5]: 105 nM | Drug uptake(free) [6]: 22 nM | Cp(f) [7]: 480 nM | Cp(f) [8]: 219 nM | Cp(f) [9]: 26 nM | Cp(f) [10]: 47 nM
Compound: Cc1cc(C)c2c(n1)CN(C(=O)CC1CN(c3ccnc(C(F)(F)F)c3)C1)C2 [EMRACLIDINE]

Reference: ChEMBL document CHEMBL5500405, “Design and Synthesis of Clinical Candidate PF-06852231 (CVL-231): A Brain Penetrant, Selective, Positive Allosteric Modulator of the M4 Muscarinic Acetylcholine Receptor” (J Med Chem, 2024)
